US6890954B1, “Uses of 2-bromopalmitate in the treatment of autoimmune disease” (priority 1999, dated 2005)

How the values were obtained:
Assay type in all cases: cell-based
Fyn = assay: DRM (raft) localization in activated Jurkat cells, sucrose gradient: Fyn; settings: 100 μM 3 hours, OKT3 activated, control 88%
Protocol: (§1) Isolation of Triton X-100 resistant and soluble fractions was carried out as described previously (12). Isolation of detergent resistant microdomains by sucrose gradients were carried out as follows (19): Jurkat cells (5×10^7) were treated with 2-bromopalmitate, activated with OKT3 mAb as described above, and lysed in 1 ml lysis buffer (25 mM MES pH 6.5, 150 mM NaCl, 0.5% Triton X-100, 1 mM Na3VO4) supplemented with protease inhibitors for 30 minutes at 0° C. After homogenizing 10 times with a loose fit Dounce homogenizer, lysates were mixed with 1 ml 85% sucrose in MBS (25 mM MES pH 6.5, 150 mM NaCl), and overlayered with 6 ml 30% sucrose in MBS, then with 4 ml 5% sucrose in MBS. Following centrifugation for 16 hours at 145,000 g in an SW40 rotor, 1 ml fractions were collected and analyzed by PAGE and immunoblotting with anti-Fyn, anti-LAT, or anti-Lck antibodies.
(§2) The ability of 2-bromopalmitate to inhibit localization of palmitoylated proteins to detergent resistant microdomains in activated Jurkat cells was examined next. Cells were either left untreated or treated with 100 μM 2-bromopalmitate for 3 hours, washed, resuspended in serum-free media, and the TCR was activated with OKT3 mAb. Activated cells were extracted with Triton X-100 containing buffer. […] Each fraction was analyzed by immunoblotting with specific antibodies. […]

LAT = assay: CD3-mediated tyrosine phosphorylation of LAT in Jurkat cells; settings: 100 μM 3 hours, OKT3
Protocol: (§3) Jurkat T cells (2×10^6−1×10^7) were centrifuged at 1,000×g for 5 minutes, rinsed with RPMI, resuspended in RPMI supplemented with 2% dialyzed FBS, 0.5% defatted BSA, and incubated with or without 100 μM 2-bromopalmitate at 8×10^5 cells/ml for 3 hours. The cells were centrifuged, washed with RPMI and resuspended in RPMI at 1×10^7−1×10^8 cells/ml. The cells were then activated with anti-CD3 OKT3 mAb (0.3 mg/ml) for 3 min at 37° C., quickly spun down, washed once with cold RPMI and once with cold STE, and lysed in RIPA Samples were solubilized in 1× sample buffer containing 5% β-mercaptoethanol and subjected to SDS-PAGE, followed by immunoblotting with anti-phosphotyrosine antibody (PY99). For analysis of specific proteins, RIPA lysates were immunoprecipitated with the specific antibodies O/N, and immunoblotted for phosphotyrosine. Alternatively, proteins were immunoprecipitated with agarose-conjugated anti phosphotyrosine antibody and blotted for the specific proteins.
(§4) In order to identify the individual proteins whose tyrosine phosphorylation is affected by 2-bromopalmitate, lysates were immunoprecipitated with a panel of specific antibodies, and immunoblotted for phosphotyrosine. Alternatively, lysates were immunoprecipitated with an antiphosphotyrosine antibody, and blotted with antibodies to specific proteins.

Lck = assay: DRM (raft) localization in activated Jurkat cells, sucrose gradient: Lck; settings: 100 μM 3 hours, OKT3 activated, control 59%
Protocol: as §1, §2

ZAP-70 = assay: CD3-mediated tyrosine phosphorylation of ZAP-70 in Jurkat cells; settings: 100 μM 3 hours, OKT3
Protocol: as §3, §4

[1] = test system: G2A,C3SFyn-HRas and G12V H-Ras; assay: Membrane localization of the two Ras constructs in COS-1 cells; settings: COS-1, 2-bromopalmitate overnight
Protocol: Analysis of the G2A,C3S Fyn-HRas chimera was performed according to the procedure described above. Analysis of the G12V HRas construct was according to the procedure described above, except that the samples were not immunoprecipiated, and were subjected to immunoblotting with anti-HRas antibody.
Each of these three sequences was appended onto the Fyn protein. Gαo(10)-Fyn and GAP43(10)-Fyn are chimeric constructs with the first 10 amino acids of Gαo or GAP-43, respectively, in place of the first 10 amino acids of wt Fyn. These constructs have been previously described (12,13). In addition, the H-Ras tail was fused to the C-terminus of a non-acylated Fyn mutant (G2A,C3SFyn-HRas). This construct contains full length Fyn with mutations in the N-terminal myristoylation and palmitoylation sites, but with the C-terminus of H-Ras available for prenylation and palmitoylation.
Finally, an oncogenic G12V full length H-Ras construct was tested. […] In contrast, 2-bromopalmitate had only a minimal effect on the membrane localization of the two Ras constructs, inducing a 10-20% shift from membrane to cytosol (FIGS. 3C and D). The G12V H-Ras construct migrates as a doublet on a gel. The slower migrating form represents the non-processed cytosolic form of H-Ras, and the faster migrating form represents the processed Ras, which is membrane bound.

PI3K = assay: CD3-mediated tyrosine phosphorylation of PI3K in Jurkat cells; settings: 100 μM 3 hours, OKT3
Protocol: as §3, §4

[2] = test system: T cell receptor signaling; assay: TCR-mediated tyrosine phosphorylation in Jurkat T cells (anti-phosphotyrosine immunoblot)
Protocol: as §3
Jurkat cells were incubated with 2-bromopalmitate and activated with OKT3 anti-CD3 antibody. Cell lysates were analyzed by immunoblotting with anti phosphotyrosine antibodies. In control cells, stimulation with OKT3 antibodies induced tyrosine phosphorylation of multiple proteins (Fig 5A). […] The most dramatic effect was on a 36 kDa protein, which represents LAT (see below).

Jurkat cells = assay: Toxicity control: LAT and actin levels by immunoblot in Jurkat cells; settings: toxicity check, data not shown
Protocol: To verify that the observed inhibition of T cell receptor-mediated tyrosine phosphorylation was not a result of toxicity effects of 2-bromopalmitate, aliquots of each sample were analyzed by immunoblotting with anti-LAT and anti-actin antibodies. The levels of LAT and actin were not affected by 2-bromopalmitate (data not shown). Thus 2-bromopalmitate was able to inhibit signaling through the T cell receptor, as assayed by its ability to inhibit tyrosine phosphorylation of key substrate proteins.

## CCCCCCCCCCCCCCC(Br)C(=O)O (stereo not shown) [2-bromopalmitate]
Fyn
  Fyn found in the rafts: 59%
LAT
  CD3-mediated tyrosine phosphorylation of LAT: inhibited completely
Lck
  Lck found in the rafts: 19%
ZAP-70
  ZAP-70 phosphorylation inhibited: 50%
[1]
  shift from membrane to cytosol of the two Ras constructs: 10-20%
PI3K
  PI3K phosphorylation inhibited: 50%
[2]; 100 μM 3 hours, OKT3 3 min
  OKT3-induced tyrosine phosphorylation of several proteins: significantly inhibited
[2]; FIG. 5B
  reduction of tyrosine phosphorylation on the signaling molecules examined, basal activation taken into account: 70-100%
[2]; unactivated
  tyrosine phosphorylation in the presence of 2-bromopalmitate alone (no stimulation), some proteins: Low to moderate increases
Jurkat cells
  levels of LAT and actin: not affected
